Measured values from patent US6486199B1, “Spiro and dispiro 1,2,4-trioxolane antimalarials” (Medicines for Malaria Venture MMV International Centre …, priority 2001, dated 2002).
Converted amounts (≈) assume the structure as drawn. Like-named read-outs stand apart in the source and are kept apart here. Marks after values point to notes of the source that are not given here.

Experiments:
[1] = test system: chloroquine-resistant K1 strain of P. falciparum; test: in vitro screen against chloroquine-resistant K1 strain of P. falciparum; format: cell-based; conditions: for IC50: Plasmodium falciparum
[2] = test system: chloroquine-sensitive NF54 strain of P. falciparum; test: in vitro screen against chloroquine-sensitive NF54 strain of P. falciparum; format: cell-based; conditions: for IC50: Plasmodium falciparum
[3] = test system: ANKA strain of P. Berghei; test: single dose STI in vivo screen in infected Moro SPF mice; conditions: for inhibition in vivo at 10 mg/kg / inhibition in vivo at 100 mg/kg: Plasmodium berghei, 72 h; for inhibition in vivo at 10 mg/kg / inhibition in vivo at 100 mg/kg / Activity (%) po / Activity (%) sc: percent reduction in parasitemia day 3 post-infection; for antimalarial activity, overall assessment: overall judgement of in vitro and in vivo data of Table 2
[4] = test system: P. berghei; test: 1-day Peters test against P. berghei in vivo; conditions: for ED50 / ED90: Plasmodium berghei, 24 h; for ED90: read-out: P. berghei (1 day) ED90 po; for oral activity based on po ED50/ED90 values: ranking among trioxolanes and controls
[5] = test system: adult S. mansoni; test: activity against adult S. mansoni, treated once at day 49 of infection; format: in vivo; conditions: OZ05 200 mg/kg p.o., OZ11 100 mg/kg p.o.
[6] = test system: 21-day-old schistosomules of Schistosoma mansoni; test: effect on 21-day-old schistosomules in mice; format: in vivo; conditions: single 200 mg/kg per os; for TWR (%): total worm reduction rate; for FWR (%): female worm reduction rate; for Mean female worm burden: mean ± standard deviation
Description: […] Each group was treated per os with OZ compounds at a single dose of 200 mg/kg. Untreated mice served as the control. All groups were killed 4 weeks after treatment and the liver and intestine were removed and separated. The liver and intestine were compressed and alive male and female worms could be seen and counted. The effect of the compounds was evaluated by mean total and female worm burden.

[7] = test system: adult schistosomes (49-day-old) of Schistosoma mansoni; test: effect on adult schistosomes (49-day-old) in mice; format: in vivo; conditions: single 400 mg/kg per os; for TWR (%): total worm reduction rate; for Mean total worm burden: x ± SD
Description: Mice were infected with 100 Schistosoma mansoni cercariae […]. Each group was treated per os with OZ compounds at a single dose of 400 mg/kg. Untreated mice served as the control. All groups were killed 4 weeks after treatment and the liver and intestine were removed and separated. The liver and intestine were compressed and alive male and female worms could be seen and counted.

[8] = test system: NB2a cell line; test: neurotoxicity against the NB2a cell line; format: cell-based
[9] = test system: P. berghei; test: 4-day Peters test against P. berghei in vivo; conditions: 4 day; for ED50: Plasmodium berghei, 96 h
[10] = test system: parasitemia; test: onset of drug action and recrudescence after single oral dose; format: in vivo; conditions: for duration of action compared with artemether: single 100 mg/kg po; for Recrudescence (>5% parasitemia) occurs on day: single 100 mg/kg po on day +3 post-infection
Description: The reduction of parasitemia was monitored 12 h after treatment, and the time of recrudescence was assessed by daily blood smears for 14 days, followed by intermittent assessment for up to 30 days.

[11] = differential scanning calorimetry (DSC), thermal stability; format: physicochemical; conditions: thermal decomposition
[12] = test system: adult schistosomes (49-day-old) of Schistosoma mansoni; test: effect on adult schistosomes (49-day-old) in mice; format: in vivo; conditions: dose used was 200 mg/kg
[13] = test system: Schistosoma mansoni; test: treatment of mice infected with Schistosoma mansoni cercaria, six weekly oral doses; format: in vivo; conditions: artemether at doses four times higher than OZ05; arteflene 6×600 mg/kg p.o.; fenozan 6×100 mg/kg p.o.
Description: Mice (MORO SPF female 18-20g) were infected with 90 (±10) cecaria of Schistosoma mansoni subcutaneously.

[14] = single 10 mg/kg po, read-out: Activity (%) po
[15] = single 100 mg/kg po, survival to day 30 = cure
[16] = single 100 mg/kg sc, survival to day 30 = cure
[17] = 1 day, po, read-out: P. berghei (1 day) ED50 po
[18] = 1 day, sc, read-out: P. berghei (1 day) ED50 sc
[19] = in vitro, K1 strain, read-out: IC50 (ng/ml) K1
[20] = in vitro, NF54 strain, read-out: IC50 (ng/ml) NF54

CO[C@H]1O[C@@H]2O[C@@]3(C)CC[C@H]4[C@H](C)CC[C@@H]([C@H]1C)[C@@]24OO3 [Artemether, artemether, reference compound]
IC50 ([1]; K1, read-out: IC50 (ng/ml) K1): 0.5 ng/mL (≈ 1.68 nM) | IC50 ([2]; NF54, read-out: IC50 (ng/ml) NF54): 0.37 ng/mL (≈ 1.24 nM) | inhibition in vivo at 10 mg/kg [3, 14]: 98.7% | inhibition in vivo at 10 mg/kg ([3]; single 10 mg/kg sc, read-out: Activity (%) sc): 100% | inhibition in vivo at 100 mg/kg ([3]; single 100 mg/kg po, read-out: Activity (%) po): 100% | inhibition in vivo at 100 mg/kg ([3]; single 100 mg/kg sc, read-out: Activity (%) sc): 100% | Survival (days) po ([3]; single 10 mg/kg po): 8.0 days | Survival (days) sc ([3]; single 10 mg/kg sc): 9.0 days | Survival (days) po [3, 15]: 14.7/14.7 days | Survival (days) sc [3, 16]: 14.7/14.7 days | P. berghei (1 day) ED90 sc ([4]; 1 day, sc): 2.3 mg/kg | ED50 [4, 17]: 2 mg/kg | ED90 ([4]; 1 day, po): 4.3 mg/kg | ED50 [4, 18]: 2.1 mg/kg | activity against adult S. mansoni [5]: no activity | TWR (%) [6]: 82.2% | TWR (%) [7]: 31.0%

C[C@H]1[C@@H](O)O[C@@H]2O[C@@]3(C)CC[C@H]4[C@H](C)CC[C@@H]1[C@@]24OO3 [Dihydroart, dihydroartemisinin, reference compound]
IC50 [1, 19]: 0.22 ng/mL (≈ 0.774 nM) | IC50 [2, 20]: 0.23 ng/mL (≈ 0.809 nM) | inhibition in vivo at 10 mg/kg [3, 14]: 80% | Survival (days) po ([3]; single 10 mg/kg po): 6.8/NA days | ED50 [4, 17]: 2.9 mg/kg | ED90 ([4]; 1 day, po): 12 mg/kg | IC50 [8]: 0.22 µM

C1CCC2(CC1)OOC1(O2)C2CC3CC(C2)CC1C3 (centres unmarked) [OZ03, Adamantane-2-spiro-3′-1′,2′,4′-trioxaspiro[4.5]decane]
IC50 ([1]; K1, read-out: IC50 (ng/ml) K1): 1.2 ng/mL (≈ 4.54 nM) | antimalarial activity, overall assessment [3]: more active | Activity (%) po ([3]; single 10 mg/kg po): 94% | Activity (%) sc ([3]; single 10 mg/kg sc): 100% | Activity (%) po ([3]; single 100 mg/kg po): 100/100% | Activity (%) sc ([3]; single 100 mg/kg sc): 100/100% | Survival (days) po ([3]; single 10 mg/kg po): 7.2 days | Survival (days) sc ([3]; single 10 mg/kg sc): 11.9 days | Survival (days) po [3, 15]: 14.3 days | Survival (days) sc [3, 16]: 28 days | P. berghei (1 day) ED90 sc ([4]; 1 day, sc): 2.2 mg/kg | ED50 [4, 17]: 5 mg/kg | ED90 ([4]; 1 day, po): 8.8 mg/kg | ED50 [4, 18]: 0.7 mg/kg | P. berghei (4 day) ED90 po ([9]; po): 2.7 mg/kg | P. berghei (4 day) ED90 sc ([9]; sc): 1.1 mg/kg | ED50 ([9]; po, read-out: P. berghei (4 day) ED50 po): 1 mg/kg | ED50 ([9]; sc, read-out: P. berghei (4 day) ED50 sc): 0.6 mg/kg | IC50 [8]: 13 µM | duration of action compared with artemether [10]: comparable | Recrudescence (>5% parasitemia) occurs on day [10]: 7 days

C1C2CC3CC1CC(C2)C31OOC2(O1)C1CC3CC(C1)CC2C3 (centres unmarked) [OZ04, Adamantane-2-spiro-3′-1′,2′,4′-trioxolane-5′-spiro-2″-adamantane]
antimalarial activity, overall assessment [3]: completely inactive | Activity (%) po ([3]; single 100 mg/kg po): 0/0% | Activity (%) sc ([3]; single 100 mg/kg sc): 0/0% | Survival (days) po [3, 15]: 5.3/5.3 days | Survival (days) sc [3, 16]: 5.3/5.3 days | IC50 ([8]; NB2a cell line): 44 µM | FWR (%) [6]: 7% | Mean female worm burden [6]: 11.6 ± 3.2^a | TWR (%) [6]: 7% | Percentage of dead worm [7]: 0 | Total dead worm [7]: 0 | TWR (%) [7]: 0% | Mean total worm burden [7]: 37.6 ± 13.4 | Tm dec. (° C.) [11]: 150.8 °C

CCOC(=O)CCC1CCCCC12OOC1(CCCCC1)O2 (centres unmarked) [OZ07, 1-[2-(Ethoxycarbonyl)ethyl]-7,14,15-trioxadispiro[5.1.5.2]pentadecane]
IC50 [1, 19]: 66 ng/mL (≈ 211 nM) | IC50 [2, 20]: 49 ng/mL (≈ 157 nM) | antimalarial activity, overall assessment [3]: less active | Activity (%) po ([3]; single 100 mg/kg po): 0/0% | Activity (%) sc ([3]; single 100 mg/kg sc): 0/0% | IC50 [8]: 27 µM

CCOC(=O)CCC1CCCCC12OOC1(O2)C2CC3CC(C2)CC1C3 (centres unmarked) [OZ08, Adamantane-2-spiro-3′-6′-[2′-(ethoxycarbonyl)ethyl]-1′,2′,4′-trioxaspiro[4.5]decane]
antimalarial activity, overall assessment [3]: more active | IC50 ([8]; NB2a cell line): 42 µM

CC1(C)COC2(CCC3(CC2)OOC2(O3)C3CC4CC(C3)CC2C4)OC1 (centres unmarked) [OZ11, Adamantane-2-spiro-3′-11′,11′-dimethyl-1′,2′,4′,9′,13′-pentaoxadispiro[4.2.5.2]pentadecane]
P. berghei (1 day) ED50 po ([4]; 1 day, po): 1.5 mg/kg | P. berghei (1 day) ED90 po ([4]; 1 day, po): 2.8 mg/kg | P. berghei (1 day) ED90 sc ([4]; 1 day, sc): NA/0.87 mg/kg | P. berghei (4 day) ED50 po ([9]; po): 1.8 mg/kg | P. berghei (4 day) ED90 po ([9]; po): 3.1 mg/kg | P. berghei (4 day) ED50 sc ([9]; sc): 0.5 mg/kg | P. berghei (4 day) ED90 sc ([9]; sc): 0.9 mg/kg | duration of action compared with artemether [10]: longer | Recrudescence (>5% parasitemia) occurs on day [10]: 10 days | activity against adult S. mansoni [5]: showed activity | FWR (%) [6]: 84% | Mean female worm burden [6]: 2.0 ± 1.9^b | TWR (%) [6]: 85% | Percentage of dead worm [7]: 3.9 (6/156) | Total dead worm [7]: 6 | TWR (%) [7]: 16.2% | Mean total worm burden [7]: 30.0 ± 1.9^a | Tm dec. (° C.) [11]: 162.4 °C

CCOC(=O)N1CCC2(CC1)OOC1(O2)C2CC3CC(C2)CC1C3 (centres unmarked) [OZ23, Adamantane-2-spiro-3′-8′-ethoxycarbonyl-1′,2′,4′-trioxa-8′-azaspiro[4.5]decane]
in vivo activity ([3]; 10 mg/kg po/sc data of Table 2): best in vivo activity | P. berghei (1 day) ED50 po ([4]; 1 day, po): 1.6 mg/kg | P. berghei (1 day) ED90 po ([4]; 1 day, po): 5.5 mg/kg | P. berghei (1 day) ED90 sc ([4]; 1 day, sc): NA/1.9 mg/kg | oral activity based on po ED50/ED90 values ([4]; po): only slightly less orally active than OZ11 | P. berghei (4 day) ED50 po ([9]; po): 0.9 mg/kg | P. berghei (4 day) ED90 po ([9]; po): 2.0 mg/kg | P. berghei (4 day) ED50 sc ([9]; sc): 0.5 mg/kg | P. berghei (4 day) ED90 sc ([9]; sc): 0.9 mg/kg | FWR (%) [6]: 84% | Mean female worm burden [6]: 2.0 ± 1.0^b | TWR (%) [6]: 90% | Tm dec. (° C.) [11]: 160.8 °C | Percentage of dead worm [12]: 4 (5/124) | Total dead worm [12]: 5 | TWR (%) ([12]; total worm reduction rate): 0% | Mean total worm burden ([12]; x ± SD): 39.7 ± 19.6

C[C@@H]1C(=O)C[C@H]2C[C@@H]1OO[C@@]2(C)/C=C\c1ccc(C(F)(F)F)cc1C(F)(F)F [arteflene, reference compound]
activity in the same assay [13]: inactive

fenozan [reference compound]
IC50 (ng/ml) K1 ([1]; in vitro, K1 strain): 3.2 ng/mL | IC50 (ng/ml) NF54 ([2]; in vitro, NF54 strain): 3.0 ng/mL | Activity (%) po ([3]; single 10 mg/kg po): 99.95% | Activity (%) sc ([3]; single 10 mg/kg sc): 100% | Survival (days) po ([3]; single 10 mg/kg po): 8.6 days | Survival (days) sc ([3]; single 10 mg/kg sc): 13.4 days | P. berghei (1 day) ED50 po ([4]; 1 day, po): 1.7 mg/kg | P. berghei (1 day) ED90 po ([4]; 1 day, po): 4.3 mg/kg | P. berghei (1 day) ED50 sc ([4]; 1 day, sc): 1.7 mg/kg | P. berghei (1 day) ED90 sc ([4]; 1 day, sc): 3.2 mg/kg | oral activity based on po ED50/ED90 values ([4]; po): only slightly less orally active than OZ11 | P. berghei (4 day) ED50 po ([9]; po): 1.9 mg/kg | P. berghei (4 day) ED90 po ([9]; po): 2.7 mg/kg | P. berghei (4 day) ED50 sc ([9]; sc): 1.1 mg/kg | P. berghei (4 day) ED90 sc ([9]; sc): 2.3 mg/kg | activity in the same assay [13]: inactive
